Tests used:
Format in all cases: in vivo
[1] = test system: blackgrass (Alopecurus myosuroides); test: Test C preemergence, blackgrass; conditions: 0 is no effect, 100 is complete control
From the text: (§1) Seeds of plant species selected from blackgrass (Alopecurus myosuroides), corn (Zea mays), foxtail, giant (giant foxtail, Setaria faberi), goosegrass (Eleusine indica), kochia (Bassia scoparia), oat, wild (wild oat, Avena fatua), pigweed, palmer (palmer amaranth, Amaranthus palmeri), ragweed (common ragweed, Ambrosia artemisiifolia), ryegrass, Italian (Italian ryegrass, Lolium multiflorum), soybean (Glycine max) and wheat (Triticum aestivum) were planted into a blend of loam soil and sand and treated preemergence with a directed soil spray using test chemicals formulated in a non-phytotoxic solvent mixture which included a surfactant.
(§2) At the same time, plants selected from these crop and weed species and also galium (catchweed bedstraw, Galium aparine) and horseweed (Erigeron canadensis) were planted in pots containing the same blend of loam soil and sand and treated with postemergence applications of test chemicals formulated in the same manner. Plants ranged in height from 2 to 10 cm and were in the one- to two-leaf stage for the postemergence treatment. Treated plants and untreated controls were maintained in a greenhouse for 10 or 12 days, after which time all treated plants were compared to untreated controls and visually evaluated for injury. Plant response ratings, summarized in Table A, are based on a 0 to 100 scale where 0 is no effect and 100 is complete control. A dash (-) response means no test result.

corn (Zea mays) [2] = test: Test C preemergence, corn; conditions: 0 is no effect, 100 is complete control
From the text: as §1, §2

[3] = test system: foxtail, giant (giant foxtail, Setaria faberi); test: Test C preemergence, giant foxtail; conditions: 0 is no effect, 100 is complete control
From the text: as §1, §2

[4] = test system: goosegrass (Eleusine indica); test: Test C preemergence, goosegrass; conditions: 0 is no effect, 100 is complete control
From the text: as §1, §2

kochia (Bassia scoparia) [5] = test: Test C preemergence, kochia; conditions: 0 is no effect, 100 is complete control
From the text: as §1, §2

[6] = test system: oat, wild (wild oat, Avena fatua); test: Test C preemergence, wild oat; conditions: 0 is no effect, 100 is complete control
From the text: as §1, §2

[7] = test system: pigweed, palmer (palmer amaranth, Amaranthus palmeri); test: Test C preemergence, palmer amaranth; conditions: 0 is no effect, 100 is complete control
From the text: as §1, §2

[8] = test system: ragweed (common ragweed, Ambrosia artemisiifolia); test: Test C preemergence, ragweed; conditions: 0 is no effect, 100 is complete control
From the text: as §1, §2

[9] = test system: ryegrass, Italian (Italian ryegrass, Lolium multiflorum); test: Test C preemergence, Italian ryegrass; conditions: 0 is no effect, 100 is complete control
From the text: as §1, §2

soybean (Glycine max) [10] = test: Test C preemergence, soybean; conditions: 0 is no effect, 100 is complete control
From the text: as §1, §2

[11] = test system: wheat (Triticum aestivum); test: Test C preemergence, wheat; conditions: 0 is no effect, 100 is complete control
From the text: as §1, §2

[12] = test system: blackgrass (Alopecurus myosuroides); test: Test C postemergence, blackgrass; conditions: 31 g ai/ha Postemergence; visual injury, 0 to 100 scale (0 no effect, 100 complete control)
From the text: as §1, §2

corn (Zea mays) [13] = test: Test C postemergence, corn
From the text: as §1, §2

[14] = test system: foxtail, giant (giant foxtail, Setaria faberi); test: Test C postemergence, giant foxtail
From the text: as §1, §2

[15] = test system: goosegrass (Eleusine indica); test: Test C postemergence, goosegrass
From the text: as §1, §2

kochia (Bassia scoparia) [16] = test: Test C postemergence, kochia
From the text: as §1, §2

[17] = test system: oat, wild (wild oat, Avena fatua); test: Test C postemergence, wild oat
From the text: as §1, §2

[18] = test system: pigweed, palmer (palmer amaranth, Amaranthus palmeri); test: Test C postemergence, palmer amaranth; conditions: visual injury, 0 to 100 scale (0 no effect, 100 complete control)
From the text: as §1, §2

[19] = test system: ragweed (common ragweed, Ambrosia artemisiifolia); test: Test C postemergence, ragweed; conditions: visual injury, 0 to 100 scale (0 no effect, 100 complete control)
From the text: as §1, §2

[20] = test system: ryegrass, Italian (Italian ryegrass, Lolium multiflorum); test: Test C postemergence, Italian ryegrass; conditions: visual injury, 0 to 100 scale (0 no effect, 100 complete control)
From the text: as §1, §2

soybean (Glycine max) [21] = test: Test C postemergence, soybean; conditions: visual injury, 0 to 100 scale (0 no effect, 100 complete control)
From the text: as §1, §2

[22] = test system: wheat (Triticum aestivum); test: Test C postemergence, wheat; conditions: visual injury, 0 to 100 scale (0 no effect, 100 complete control)
From the text: as §1, §2

[23] = test system: galium (catchweed bedstraw, Galium aparine); test: Test C postemergence, galium
From the text: as §1, §2

[24] = test system: horseweed (Erigeron canadensis); test: Test C postemergence, horseweed
From the text: as §1, §2

[25] = test system: barnyardgrass (Echinochloa crusgalli); test: Test D flooded paddy test, barnyardgrass; parameters: key: 0 = no effect, 100 = complete control; conditions: 250 g ai/ha, Flood; applied to paddy water at 2-leaf stage; visual rating after 13 days; scale 0 (no effect) to 100 (complete control)
Protocol: (§3) Plant species in the flooded paddy test selected from barnyardgrass (Echinochloa crusgalli), ducksalad (Heteranthera limosa), rice (Oryza sativa), and sedge, umbrella (small-flower umbrella sedge, Cyperus difformis) were grown to the 2-leaf stage for testing. At time of treatment, test pots were flooded to 3 cm above the soil surface, treated by application of test compounds directly to the paddy water, and then maintained at that water depth for the duration of the test. Treated plants and controls were maintained in a greenhouse for 13 days, after which time all species were compared to controls and visually evaluated. Plant response ratings, summarized in Table B, are based on a scale of 0 to 100 where 0 is no effect and 100 is complete control. A dash (-) response means no test result.

[26] = test system: ducksalad (Heteranthera limosa); test: Test D flooded paddy test, ducksalad; parameters: key: 0 = no effect, 100 = complete control; conditions: 250 g ai/ha, Flood; applied to paddy water at 2-leaf stage; visual rating after 13 days; scale 0 (no effect) to 100 (complete control)
Protocol: as §3

rice (Oryza sativa) = test: Test D flooded paddy test, rice; parameters: key: 0 = no effect, 100 = complete control; conditions: 250 g ai/ha, Flood; applied to paddy water at 2-leaf stage; visual rating after 13 days; scale 0 (no effect) to 100 (complete control)
Protocol: as §3

[27] = test system: sedge, umbrella (small-flower umbrella sedge, Cyperus difformis); test: Test D flooded paddy test, umbrella sedge; parameters: key: 0 = no effect, 100 = complete control; conditions: 250 g ai/ha, Flood; applied to paddy water at 2-leaf stage; visual rating after 13 days; scale 0 (no effect) to 100 (complete control)
Protocol: as §3

[28] = test system: blackgrass (Alopecurus myosuroides); test: Test C postemergence, blackgrass; conditions: 125 g ai/ha Postemergence; 0 is no effect, 100 is complete control
[29] = 31 g ai/ha Postemergence, visual injury, 0 to 100 scale (0 no effect, 100 complete control)
[30] = 125 g ai/ha Postemergence, 0 is no effect, 100 is complete control

Compound: Cc1c(N2CCCC(OC3CCC3)C2=O)cc(N(COC(=O)C(C)(C)C)S(=O)(=O)C(F)(F)F)c(C)c1F (stereo not shown) [Compound 39]
- Plant response rating (0 to 100 scale), Blackgrass ([1]; 31 g ai/ha Preemergence): 0
- Plant response rating (0 to 100 scale), Blackgrass ([1]; 125 g ai/ha Preemergence): 20
- Plant response rating (0 to 100 scale), Corn (corn (Zea mays) [2]; 31 g ai/ha Preemergence): 0
- Plant response rating (0 to 100 scale), Corn (corn (Zea mays) [2]; 125 g ai/ha Preemergence): 10
- Plant response rating (0 to 100 scale), Foxtail, Giant ([3]; 31 g ai/ha Preemergence): 0
- Plant response rating (0 to 100 scale), Foxtail, Giant ([3]; 125 g ai/ha Preemergence): 10
- Plant response rating (0 to 100 scale), Goosegrass ([4]; 31 g ai/ha Preemergence): 10
- Plant response rating (0 to 100 scale), Goosegrass ([4]; 125 g ai/ha Preemergence): 60
- Plant response rating (0 to 100 scale), Kochia (kochia (Bassia scoparia) [5]; 31 g ai/ha Preemergence): 20
- Plant response rating (0 to 100 scale), Kochia (kochia (Bassia scoparia) [5]; 125 g ai/ha Preemergence): 60
- Plant response rating (0 to 100 scale), Oat, Wild ([6]; 31 g ai/ha Preemergence): 0
- Plant response rating (0 to 100 scale), Oat, Wild ([6]; 125 g ai/ha Preemergence): 0
- Plant response rating (0 to 100 scale), Pigweed, Palmer ([7]; 31 g ai/ha Preemergence): 0
- Plant response rating (0 to 100 scale), Pigweed, Palmer ([7]; 125 g ai/ha Preemergence): 40
- Plant response rating (0 to 100 scale), Ragweed ([8]; 31 g ai/ha Preemergence): 0
- Plant response rating (0 to 100 scale), Ragweed ([8]; 125 g ai/ha Preemergence): 80
- Plant response rating (0 to 100 scale), Ryegrass, Italian ([9]; 31 g ai/ha Preemergence): 0
- Plant response rating (0 to 100 scale), Ryegrass, Italian ([9]; 125 g ai/ha Preemergence): 60
- Plant response rating (0 to 100 scale), Soybean (soybean (Glycine max) [10]; 31 g ai/ha Preemergence): 0
- Plant response rating (0 to 100 scale), Soybean (soybean (Glycine max) [10]; 125 g ai/ha Preemergence): 60
- Plant response rating (0 to 100 scale), Wheat ([11]; 31 g ai/ha Preemergence): 0
- Plant response rating (0 to 100 scale), Wheat ([11]; 125 g ai/ha Preemergence): 0
- Blackgrass plant response rating [12]: 0
- Corn plant response rating (corn (Zea mays) [13]; [29]): 0
- Plant response rating (0 to 100 scale), Corn (corn (Zea mays) [13]; [30]): 10
- Foxtail, Giant plant response rating [14, 29]: 0
- Plant response rating (0 to 100 scale), Foxtail, Giant [14, 30]: 10
- Goosegrass plant response rating [15, 29]: 0
- Plant response rating (0 to 100 scale), Goosegrass [15, 30]: 30
- Kochia plant response rating (kochia (Bassia scoparia) [16]; [29]): 30
- Plant response rating (0 to 100 scale), Kochia (kochia (Bassia scoparia) [16]; [30]): 60
- Oat, Wild plant response rating [17, 29]: 0
- Plant response rating (0 to 100 scale), Oat, Wild [17, 30]: 20
- Pigweed, Palmer plant response rating ([18]; 31 g ai/ha Postemergence): 0
- Pigweed, Palmer plant response rating ([18]; 125 g ai/ha Postemergence): 20
- Ragweed plant response rating ([19]; 31 g ai/ha Postemergence): 30
- Ragweed plant response rating ([19]; 125 g ai/ha Postemergence): 80
- Ryegrass, Italian plant response rating ([20]; 31 g ai/ha Postemergence): 0
- Ryegrass, Italian plant response rating ([20]; 125 g ai/ha Postemergence): 30
- Soybean plant response rating (soybean (Glycine max) [21]; 31 g ai/ha Postemergence): 50
- Soybean plant response rating (soybean (Glycine max) [21]; 125 g ai/ha Postemergence): 90
- Wheat plant response rating ([22]; 31 g ai/ha Postemergence): 0
- Wheat plant response rating ([22]; 125 g ai/ha Postemergence): 60
- Galium plant response rating [23, 29]: 80
- Plant response rating (0 to 100 scale), Galium [23, 30]: 90
- Horseweed plant response rating [24, 29]: 70
- Plant response rating (0 to 100 scale), Horseweed [24, 30]: 90
- Plant response rating, Barnyardgrass [25]: 35
- Plant response rating, Ducksalad [26]: 55
- Plant response rating, Rice (rice (Oryza sativa)): 0
- Plant response rating, Sedge, Umbrella [27]: 95
- Plant response rating (0 to 100 scale), Blackgrass [28]: 10
